Data: publication PMC6566875, “Synthesis and characterisation of a new benzamide-containing nitrobenzoxadiazole as a GSTP1-1 inhibitor endowed with high stability to metabolic hydrolysis” (Journal of Enzyme Inhibition and Medicinal Chemistry, 2019)
Read-outs that look alike come from different tables or passages of the source.

Columns and labels:
human GSTP1-1 [1] = molecular target: T1, human GSTP1-1 (Homo sapiens, UniProt P09211); assay: GSTP1-1 catalytic activity inhibition (CDNB-GSH conjugation, spectrophotometric); format: biochemical; conditions: detergent-free buffer
T1 construct: made in house; host or cells: E. coli Top 10
T1 sequence (P09211 2-210 limits assumed): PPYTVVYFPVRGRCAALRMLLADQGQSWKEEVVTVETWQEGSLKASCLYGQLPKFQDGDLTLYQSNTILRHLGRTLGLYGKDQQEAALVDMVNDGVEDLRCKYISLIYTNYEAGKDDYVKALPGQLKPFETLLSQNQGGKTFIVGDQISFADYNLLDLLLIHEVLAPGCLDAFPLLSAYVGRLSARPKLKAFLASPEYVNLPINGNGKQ
Method: The enzymatic activity of GSTP1-1 (20 nM subunits) was spectrophotometrically assayed at 340 nm (ε = 9,600 M^−1 cm^−1) and at 25 °C, by measuring the rate of 1-cloro-2,4-dinitrobenzene (CDNB) conjugation with GSH as a function of time[20]. The assay mixture contained 1 mM GSH and 1 mM CDNB in 1 mL of buffer B (0.1 M potassium phosphate buffer, pH 6.5 containing 0.1 mM EDTA).

human GSTP1-1 [2] = molecular target: T1, human GSTP1-1; conditions: 1 mM GSH, 1 mM CDNB, pH 6.5, 25 °C; read-out: GSTP1-1 inhibition assay IC50; cited from earlier work
TRAF2-GSTP1-1 complex = molecular target: T2, TRAF2-GSTP1-1 complex (Homo sapiens, UniProt P09211); assay: ELISA for TRAF2-GSTP1-1 protein-protein interaction; format: binding; conditions: 20 µM compound, pH 7.0
T2 construct: made in house; host or cells: E. coli Top 10 (GSTP1-1); E. coli BL21 (DE3) (TRAF2)
T2 sequence (P09211 2-210 limits assumed, one chain of several): as the sequence (P09211 2-210 limits assumed) above
Method: The formation of the TRAF2-GSTP1-1 complex was studied as previously described. Briefly, 200 µL of His-tagged TRAF2 C-terminal domain (0.005 µM in 20 mM Tris–HCl, pH 7.6, containing 150 mM NaCl and 10% glycerol) were added to each well of a 96-well His-Sorb plate (Qiagen, Hilden, Germany) and incubated overnight, at 4 °C, on a rocking platform. Afterwards, wells were washed with PBS and incubated for 30 min with GSTP1-1 (concentration range from 0.1 to 2 µM) in 10 mM potassium phosphate buffer, pH 7.0, containing 0.1 mM EDTA. Incubation with GSTP1-1 was also performed in the presence of 1 (20 µM), 3 (20 µM) or 4 (20 µM), both in the absence and presence of GSH (1 mM). At the end of incubation, the wells were washed with PBS and then filled with 200 µL of a mouse anti-GSTP1-1 antibody (Cell Signalling, Beverly, MA, USA; 1:1000 in TBS containing 0.1% Tween and 5% non-fat dry milk) for 2 h at room temperature. Subsequently, wells were washed with PBS and incubated with an antimouse IgG antibody (Cell Signalling; 1:1000 in TBS containing 0.1% Tween and 5% non-fat dry milk) for 45 min at room temperature. The immunocomplexes were detected by the addiction of 200 µL/well of the 1-Step-Turbo TMB substrate solution (Pierce, Rockford, IL, USA). The reaction was stopped after 10 min by the addition of 50 µL of 2M H2SO4, and the absorbance was measured at 450 nm. Data were analysed by fitting to Equation (1) where ν is the percentage of the saturated binding sites of TRAF2; [P]t and [L]t are the total concentrations of monomeric GSTP1-1 and TRAF2, respectively.

Structure (SMILES): O=C(OCCCCCCSc1ccc([N+](=O)[O-])c2nonc12)c1ccccc1 [Compound 3, 6-((7-nitrobenzo[c][1,2,5]oxadiazol-4-yl)thio)hexyl benzoate, reference compound]
- Maximal inhibition of GSTP1-1 conjugation activity (human GSTP1-1 [1]; 0.01-20 µM compound): no more than 50%
- IC50 (human GSTP1-1 [2]): 0.6 ± 0.3 µM

Structure (SMILES): O=[N+]([O-])c1ccc(SCCCCCCO)c2nonc12 [Compound 1, 6-((7-nitrobenzo[c][1,2,5]oxadiazol-4-yl)thio)hexan-1-ol, reference compound]
- Effect on TRAF2-GSTP1-1 complex formation (TRAF2-GSTP1-1 complex; presence of GSH (1 mM)): overlaps those obtained with 3 and 4

Structure (SMILES): O=C(NCCCCCCSc1ccc([N+](=O)[O-])c2nonc12)c1ccccc1 [Compound 4, N-(6-((7-nitrobenzo[c][1,2,5]oxadiazol-4-yl)thio)hexyl)benzamide]
- IC50 (human GSTP1-1 [1]; 1 mM GSH, 1 mM CDNB, pH 6.5, 25 °C): 0.7 ± 0.1 µM
- Ki (human GSTP1-1 [1]; 1 mM GSH, 1 mM CDNB, pH 6.5, 25 °C, read-out: Ki app (GSTP1-1 enzyme activity)): 0.7 ± 0.1 µM
- Extent of inhibition of GSTP1-1 enzyme activity (human GSTP1-1 [1]; 0.01-20 µM compound): completely inhibited
- Effect on TRAF2-GSTP1-1 complex formation (TRAF2-GSTP1-1 complex; absence of GSH): inhibited TRAF2-GST-P1-1 complex formation
- Effect on TRAF2-GSTP1-1 complex formation (TRAF2-GSTP1-1 complex; presence of GSH (1 mM)): inhibited TRAF2-GST-P1-1 complex formation
